# From patent US11643421B2, “Process for the preparation of tricyclic PI3K inhibitor compounds and methods for using the same for the treatment of cancer” (priority 2015, dated 2023)
# Test: MALDI imaging of brain distribution, U87 orthotopic model
# Type: in vivo, female nude mice
# Conditions: re-analysis of previously obtained images (Salphati et al. 2014)
# Experimental: Mice were euthanized at 1 and 6 hours post-dose via exsanguination by perfusion under anesthesia. Brains were excised, flash frozen in liquid N2 and stored in a −80° C. freezer until analyzed. Fresh frozen tissue sections were obtained on a cryomicrotome (Leica CM3050S, Buffalo Grove, Ill.) at 12 μm thickness and thaw-mounted onto indium tin oxide coated glass slides (Bruker Daltonics, Billerica, Mass.). Tissue sections were an analyzed by imaging MALDI MS, providing signal intensities (and not absolute quantitation), followed by cresyl violet staining for histological interrogation.
# For MALDI MAS analysis, a 40 mg/mL solution of 2,5-dihydroxybenzoic acid (Sigma-Aldrich, St. Louis, Mo.) was prepared in methanol:water (70:30 v/v). […] Matrix solution was homogenously spray-coated onto the tissue using a HTX TM-Sprayer (HTX technologies. Chapel Hill, N.C.). Matrix-coated tissue sections were transferred to the MALDI mass spectrometer (SolariX 7T FT-ICR, Bruker Daltonics, Bremen, Germany) for imaging analysis. […] Laser intensity and number of shots were optimized for sensitivity of the parent drug (1200 shots) with ion detection collected over the mass range of m/z 150-3000.
# Following completion of the imaging experiments, matrix coaling was removed by rinsing the glass slide in 100% methanol for 30 seconds or until the entire matrix was visibly removed. […] Microscope images were obtained on an Olympus BX51 (Tokyo, Japan) at 10× magnification and stitched using MicroSuite Analytical v3.0 software (Olympus, Tokyo, Japan). Subsequently, stained images were co-registered to the optical images in FlexImaging for visualization and annotation of tumor and non-tumor regions for the drug images.
# To assess drug distribution, imaging MALDI MS data from U87 and GS2 tumor models were co-registered to the cresyl violet stained microscope images in FlexImaging Regions of interest (ROIs) that were selected based on the anatomical features defined in the histological image including tumor and non-tumor regions. Drug intensity for each pixel within the defined ROI was extracted and exported. […] Histogram plots were created in GraphPad Prism 5 to visualize the distribution of pixel intensity frequencies.
smiles,measurement,value
"CS(=O)(=O)N1CCN(Cc2cc3nc(-c4cccc5[nH]ncc45)nc(N4CCOCC4)c3s2)CC1 [pictilisib, reference compound]",distribution of signal intensities in the U87 tumor (MALDI),concentrated in the low intensity bins
